Experimental data from paper PMC8161026, “Synthesis and Anticancer Activity Evaluation of 5-[2-Chloro-3-(4-nitrophenyl)-2-propenylidene]-4-thiazolidinones” (Molecules, 2021).
Like-named read-outs stand apart in the source and are kept apart here.

Legend:
[1] = system: CAKI-1; test: NCI DTP 60 cell line screen, SRB; settings: for TGI: CAKI-1 (Renal Cancer), 48 h, SRB; for GI50 / CC50: Homo sapiens, CAKI-1, 48 h; for CC50: read-out: LC50
[2] = system: 786-0; test: cells; settings: Homo sapiens, 786-0, 48 h; for CC50: read-out: LC50
[3] = system: Non-Small Cell Lung Cancer subpanel; test: cells; settings: for GI50 / CC50: Homo sapiens; for GI50: read-out: MG_MID, GI50; for CC50: read-out: MG_MID, LC50; for MG_MID, TGI: Non-Small Cell Lung Cancer panel mean
Procedure, shortened: (§1)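 NCI-60 cell lines were exposed for 48 h to compound at 10^−4 to 10^−8 M, with growth measured by SRB staining against untreated controls. GI50, TGI and LC50 were derived per line, and subpanel MG_MID values were averaged with insensitive lines set at the top concentration. Selectivity index is full-panel MG-MID divided by subpanel MG-MID.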

[4] = system: Prostate Cancer subpanel; test: cells; settings: for GI50 / CC50: Homo sapiens; for GI50: read-out: MG_MID, GI50; for CC50: read-out: MG_MID, LC50; for MG_MID, TGI: Prostate Cancer panel mean
Procedure, shortened: as §1

[5] = system: Colon Cancer subpanel; test: cells; settings: for MG_MID, TGI: Colon Cancer panel mean; for GI50 / CC50: Homo sapiens; for GI50: read-out: MG_MID, GI50; for CC50: read-out: MG_MID, LC50
Procedure, shortened: as §1

[6] = system: Leukemia subpanel; test: cells; settings: for TI (Therapeutic Index): GI50 (normal blood lymphocyte)/GI50 (Leukemia Panel); for GI50 / CC50: Homo sapiens; for GI50: read-out: MG_MID, GI50; for CC50: read-out: MG_MID, LC50; for MG_MID, TGI: Leukemia panel mean
Procedure, shortened: as §1

[7] = system: Ovarian Cancer subpanel; test: cells; settings: for GI50 / CC50: Homo sapiens; for GI50: read-out: MG_MID, GI50; for CC50: read-out: MG_MID, LC50; for MG_MID, TGI: Ovarian Cancer panel mean
Procedure, shortened: as §1

[8] = system: CNS Cancer subpanel; test: cells; settings: for GI50 / CC50: Homo sapiens; for GI50: read-out: MG_MID, GI50; for CC50: read-out: MG_MID, LC50
Procedure, shortened: as §1

[9] = system: Melanoma subpanel; test: cells; settings: for GI50 / CC50: Homo sapiens; for GI50: read-out: MG_MID, GI50; for CC50: read-out: MG_MID, LC50; for MG_MID, TGI: Melanoma panel mean
Procedure, shortened: as §1

[10] = system: Breast Cancer subpanel; test: cells; settings: for MG_MID, TGI: Breast Cancer panel mean; for GI50 / CC50: Homo sapiens; for GI50: read-out: MG_MID, GI50; for CC50: read-out: MG_MID, LC50
Procedure, shortened: as §1

[11] = system: Renal Cancer subpanel; test: cells; settings: for GI50 / CC50: Homo sapiens; for GI50: read-out: MG_MID, GI50; for CC50: read-out: MG_MID, LC50; for MG_MID, TGI: Renal Cancer panel mean
Procedure, shortened: as §1

[12] = system: OVCAR-8; test: NCI DTP 60 cell line screen, SRB; settings: for GI50 / CC50: Homo sapiens, OVCAR-8, 48 h; for CC50: read-out: LC50; for TGI: OVCAR-8 (Ovarian Cancer), 48 h, SRB
[13] = system: NCI-322M; test: NCI DTP 60 cell line screen, SRB; settings: 48 h; for GI50 / CC50: Homo sapiens, NCI-322M; for CC50: read-out: LC50; for TGI: NCI-322M (Non-Small Cell Lung Cancer), SRB
[14] = system: HOP-92; test: NCI DTP 60 cell line screen, SRB; settings: for TGI: HOP-92 (Non-Small Cell Lung Cancer), 48 h, SRB; for GI50 / CC50: Homo sapiens, HOP-92, 48 h; for CC50: read-out: LC50
[15] = system: A549/ATCC; settings: A549/ATCC (Non-Small Cell Lung Cancer), 48 h, SRB
[16] = system: EKVX; test: cells; settings: Homo sapiens, 48 h; for CC50: read-out: LC50
[17] = system: SN12C; test: cells; settings: Homo sapiens, 48 h; for CC50: read-out: LC50
[18] = system: BT-549; test: NCI DTP 60 cell line screen, SRB; settings: for TGI: BT-549 (Breast Cancer), 48 h, SRB; for GI50 / CC50: Homo sapiens, BT-549, 48 h; for CC50: read-out: LC50
[19] = system: K-562; settings: for TI (Therapeutic Index): GI50 (normal blood lymphocyte)/GI50 (K-562); for TGI: K-562 (Leukemia), 48 h, SRB
[20] = full panel MG_MID / Non-Small Cell Lung Cancer subpanel MG_MID
[21] = full panel MG_MID / Prostate Cancer subpanel MG_MID
[22] = full panel MG_MID / Colon Cancer subpanel MG_MID
[23] = full panel MG_MID / Leukemia subpanel MG_MID
[24] = full panel MG_MID / Ovarian Cancer subpanel MG_MID
[25] = full panel MG_MID / CNS Cancer subpanel MG_MID
[26] = full panel MG_MID / Melanoma subpanel MG_MID
[27] = full panel MG_MID / Breast Cancer subpanel MG_MID
[28] = full panel MG_MID / Renal Cancer subpanel MG_MID

SMILES: O=C(O)CCN1C(=O)/C(=C/C(Cl)=C/c2ccc([N+](=O)[O-])cc2)SC1=S [Compound 2h, 3-{5-[(Z,2Z)-2-Chloro-3-(4-nitrophenyl)-2-propenylidene]-4-oxo-2-thioxothiazolidin-3-yl}propanoic acid]
- TGI [1]: 6.14 µM
- GI50 [1]: 0.485 µM
- CC50 [1]: 47.1 µM
- GI50 [2]: 1.13 µM
- CC50 [2]: 5.42 µM
- SI (selectivity index), GI50 [3]: 0.59
- SI (selectivity index), TGI [3]: 1.38
- GI50 [3]: 2.65 µM
- CC50 [3]: 61.4 µM
- MG_MID, TGI [3]: 9.61 µM
- SI (selectivity index), LC50 [3, 20]: 1.06
- SI (selectivity index), GI50 [4]: 2.77
- SI (selectivity index), TGI [4]: 1.55
- GI50 [4]: 0.567 µM
- CC50 [4]: 47.1 µM
- MG_MID, TGI [4]: 8.59 µM
- SI (selectivity index), LC50 [4, 21]: 1.38
- SI (selectivity index), GI50 [5]: 3.43
- SI (selectivity index), TGI [5]: 0.57
- MG_MID, TGI [5]: 23.3 µM
- GI50 [5]: 0.458 µM
- CC50 [5]: > 100 µM
- SI (selectivity index), LC50 [5, 22]: <0.65
- SI (selectivity index), GI50 [6]: 10.83
- SI (selectivity index), TGI [6]: 2.45
- TI (Therapeutic Index) [6]: 376.14
- GI50 [6]: 0.145 µM
- CC50 [6]: > 100 µM
- MG_MID, TGI [6]: 5.42 µM
- SI (selectivity index), LC50 [6, 23]: <0.65
- SI (selectivity index), GI50 [7]: 0.74
- SI (selectivity index), TGI [7]: 1.05
- GI50 [7]: 2.13 µM
- CC50 [7]: 68.7 µM
- MG_MID, TGI [7]: 12.7 µM
- SI (selectivity index), LC50 [7, 24]: 0.95
- SI (selectivity index), GI50 [8]: 0.50
- SI (selectivity index), TGI [8]: 0.75
- MG_MID, TGI ([8]; CNS Cancer panel mean): 17.7 µM
- GI50 [8]: 3.13 µM
- CC50 [8]: 84.9 µM
- SI (selectivity index), LC50 [8, 25]: 0.77
- SI (selectivity index), GI50 [9]: 0.64
- SI (selectivity index), TGI [9]: 0.96
- GI50 [9]: 2.45 µM
- CC50 [9]: 53.1 µM
- MG_MID, TGI [9]: 13.9 µM
- SI (selectivity index), LC50 [9, 26]: 1.22
- SI (selectivity index), GI50 [10]: 2.63
- SI (selectivity index), TGI [10]: 0.63
- MG_MID, TGI [10]: 21.1 µM
- GI50 [10]: 0.598 µM
- CC50 [10]: 49.6 µM
- SI (selectivity index), LC50 [10, 27]: 1.31
- SI (selectivity index), TGI [11]: 2.77
- GI50 [11]: 0.99 µM
- CC50 [11]: 23.8 µM
- MG_MID, TGI [11]: 4.81 µM
- SI (selectivity index), LC50 [11, 28]: 2.73
- GI50 [12]: 0.244 µM
- CC50 [12]: > 100 µM
- TGI [12]: 11.5 µM
- GI50 [13]: 2.83 µM
- CC50 [13]: 63.4 µM
- TGI [13]: 10.9 µM
- TGI [14]: 18.3 µM
- GI50 [14]: 4.81 µM
- CC50 [14]: 50.7 µM
- TGI [15]: 7.62 µM
- GI50 [16]: 0.334 µM
- CC50 [16]: 55.6 µM
- GI50 [17]: 1.05 µM
- CC50 [17]: 8.48 µM
- TGI [18]: 0.920 µM
- GI50 [18]: 0.247 µM
- CC50 [18]: 36.3 µM
- TI (Therapeutic Index) [19]: 257.26
- TGI [19]: 2.83 µM

SMILES: O=C(O)C(Cc1ccccc1)N1C(=O)/C(=C/C(Cl)=C/c2ccc([N+](=O)[O-])cc2)SC1=S (stereo not drawn) [Compound 2j, 2-{5-[(Z,2Z)-2-Chloro-3-(4-nitrophenyl)-2-propenylidene]-4-oxo-2-thioxothiazolidin-3-yl}-3-phenylpropanoic acid]
- TGI [1]: 5.09 µM
- GI50 [1]: 2.28 µM
- CC50 [1]: 16.7 µM
- GI50 [2]: 2.1 µM
- CC50 [2]: > 100 µM
- GI50 [3]: 13.1 µM
- CC50 [3]: 92.9 µM
- MG_MID, TGI [3]: 36.9 µM
- SI (selectivity index), GI50 [3, 20]: 0.31
- SI (selectivity index), LC50 [3, 20]: 0.80
- SI (selectivity index), TGI [3, 20]: 1.10
- GI50 [4]: 2.3 µM
- CC50 [4]: 55.9 µM
- MG_MID, TGI [4]: 6.27 µM
- SI (selectivity index), GI50 [4, 21]: 1.78
- SI (selectivity index), LC50 [4, 21]: 1.32
- SI (selectivity index), TGI [4, 21]: 6.48
- MG_MID, TGI [5]: 18.7 µM
- GI50 [5]: 2.19 µM
- CC50 [5]: 67.4 µM
- SI (selectivity index), GI50 [5, 22]: 1.87
- SI (selectivity index), LC50 [5, 22]: 1.10
- SI (selectivity index), TGI [5, 22]: 2.17
- TI (Therapeutic Index) [6]: 16.60
- GI50 [6]: 2.95 µM
- CC50 [6]: > 100 µM
- MG_MID, TGI [6]: >100 µM
- SI (selectivity index), GI50 [6, 23]: 1.39
- SI (selectivity index), LC50 [6, 23]: <0.74
- SI (selectivity index), TGI [6, 23]: <0.41
- GI50 [7]: 3 µM
- CC50 [7]: 84.5 µM
- MG_MID, TGI [7]: 68.6 µM
- SI (selectivity index), GI50 [7, 24]: 1.36
- SI (selectivity index), LC50 [7, 24]: 0.87
- SI (selectivity index), TGI [7, 24]: 0.59
- GI50 [8]: 2.18 µM
- CC50 [8]: 7.21 µM
- SI (selectivity index), GI50 [8, 25]: 1.88
- SI (selectivity index), LC50 [8, 25]: 10.25
- SI (selectivity index), TGI [8, 25]: 11.53
- GI50 [9]: 2 µM
- CC50 [9]: 50.6 µM
- MG_MID, TGI [9]: 17.9 µM
- SI (selectivity index), GI50 [9, 26]: 2.05
- SI (selectivity index), LC50 [9, 26]: 1.46
- SI (selectivity index), TGI [9, 26]: 2.27
- MG_MID, TGI [10]: 37.0 µM
- GI50 [10]: 24.6 µM
- CC50 [10]: 84.6 µM
- SI (selectivity index), GI50 [10, 27]: 0.17
- SI (selectivity index), LC50 [10, 27]: 0.87
- SI (selectivity index), TGI [10, 27]: 1.10
- GI50 [11]: 2.03 µM
- CC50 [11]: 42.6 µM
- MG_MID, TGI [11]: 27.8 µM
- SI (selectivity index), GI50 [11, 28]: 2.01
- SI (selectivity index), LC50 [11, 28]: 1.73
- SI (selectivity index), TGI [11, 28]: 1.46
- GI50 [12]: 3.13 µM
- CC50 [12]: > 100 µM
- TGI [12]: > 100 µM
- GI50 [13]: > 100 µM
- CC50 [13]: > 100 µM
- TGI [13]: >100/>100/>100 μM
- TGI [14]: 5.71 µM
- GI50 [14]: 2.36 µM
- CC50 [14]: > 100 µM
- TGI [15]: > 100 µM
- GI50 [16]: 2.59 µM
- CC50 [16]: > 100 µM
- GI50 [17]: 2.84 µM
- CC50 [17]: > 100 µM
- TGI [18]: 4.17 µM
- GI50 [18]: 1.79 µM
- CC50 [18]: > 100 µM
- TI (Therapeutic Index) [19]: 16.27
- TGI [19]: > 100 µM
